Experimental data from patent publication US20030180777A1, “Rapid identification of transcriptional regulatory domains” (priority 2002, published 2003).

Assays:
Type in all cases: cell-based
P2X7 [1] = target: T1, P2X7 (Mus musculus, UniProt Q9Z1M0); experiment: BzATP-induced EtBr uptake in Neuro-2A cells by FACS
T1 construct: mouse Neuro-2A cells (expressing P2X7); endogenous in cells; host or cells: mouse Neuro-2A cells
T1 sequence (Q9Z1M0 1-595): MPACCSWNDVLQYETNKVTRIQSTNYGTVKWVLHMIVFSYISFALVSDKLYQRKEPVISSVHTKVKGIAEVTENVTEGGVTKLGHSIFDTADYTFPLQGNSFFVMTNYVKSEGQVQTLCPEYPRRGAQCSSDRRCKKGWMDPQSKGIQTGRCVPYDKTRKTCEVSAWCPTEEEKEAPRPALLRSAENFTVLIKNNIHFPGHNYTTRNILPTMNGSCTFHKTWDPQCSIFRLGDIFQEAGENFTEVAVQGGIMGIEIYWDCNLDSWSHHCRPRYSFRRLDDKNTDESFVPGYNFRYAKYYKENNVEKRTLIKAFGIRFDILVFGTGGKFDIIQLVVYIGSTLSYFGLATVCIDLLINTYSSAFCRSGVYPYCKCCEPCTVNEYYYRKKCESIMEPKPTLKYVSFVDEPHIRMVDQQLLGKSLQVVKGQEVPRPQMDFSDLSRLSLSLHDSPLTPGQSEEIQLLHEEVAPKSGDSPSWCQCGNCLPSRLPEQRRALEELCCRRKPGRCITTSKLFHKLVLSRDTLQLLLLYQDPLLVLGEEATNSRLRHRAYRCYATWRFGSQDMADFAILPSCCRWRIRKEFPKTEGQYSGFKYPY
Method: To test the suitability of the P2X7 gene as a reporter for high-throughput screening for repression domains, mouse Neuro-2A cells (expressing P2X7) were transiently transfected with a plasmid expressing a zinc finger DNA-binding domain targeted to the P2X7 gene (ZFP #5493) linked to a KOX1 repression domain. Control Neuro-2A cells were transfected with a vector lacking both library sequences and ZFP-encoding sequences (i.e., empty vector). Cells were treated for 10 minutes with different concentrations of BzATP (ranging from 0 to 1 mM), and EtBr was then added to a final concentration of 10 μM. After 20 minutes, cells were harvested by centrifugation, washed in PBS and analyzed by FACS.

P2X7 [2] = target: T1, P2X7; experiment: BzATP-induced death of Neuro-2A cells
Method: To test this selection method, Neuro-2A cells were transiently transfected with empty vector (see Example 3 supra) or with a plasmid expressing a KOX1 repressor domain linked to the P2X7-targeted zinc finger binding domain ZFP #5493. 48 hours after transfection, cells were detached from the plate with Trypsin-EDTA, collected by centrifugation and resuspended in HKS assay buffer (125 mM KC1, 1 mM EDTA, 5 mM glucose, 20 mM HEPES, pH 7.4 adjusted with KOH). Resuspended cells were mixed with BzATP (final concentrations ranging from 0 to 1 mM) and plated onto 6 well plates (1×10^5 cells/well in 1 ml HKS). After a 2h incubation at 37° C. in a cell incubator, cells were washed with PBS, and growth medium (minimal essential medium with Earle's salts and non-essential amino acids, adjusted to contain 2 mM L-glutamine, 1.5 g/L Na bicarbonate, 1.0 mM Na pyruvate and 10% fetal bovine serum) was added to plates.

P2X7 [3] = target: T1, P2X7; experiment: BzATP-induced YO-PRO-1 uptake in Neuro-2A cells by flow cytometry; conditions: 0.2 mM BzATP, FIG. 1 left panel
Method: ZFP/KOX-1-expressing cells were also assayed for P2X7 activity by measuring their ability to take up the DNA-binding dye YO-PRO-1, as follows. Seven days after the initial BzATP treatment, pools of clones containing 2-5×10^5 cells were incubated with 0.2 mM BzATP for 10 minutes in HKS Buffer (125 mM KCl, 1 mM EDTA, 5 mM glucose, 20 mM HEPES-KOH, pH 7.4). YO-PRO-1 (Molecular Probes, Inc., Eugene, Oreg.) was added to a final concentration of 5 μM. After an additional 25 min incubation in the presence of the dye, the cells were washed with PBS, collected by centrifugation, resuspended in PBS, and analyzed by FACS on a Beckman-Coulter EPICS XL flow cytometer.

benzoylbenzoyl ATP [BzATP]
EtBr accumulation at higher concentrations of BzATP (P2X7 [1]; BzATP above 0.04 mM, range tested up to 1 mM): induced significant accumulation of EtBr | EtBr uptake at low concentrations of BzATP (P2X7 [1]; BzATP up to 0.04 mM): did not induce significant uptake of EtBr | cell death at relatively low concentrations of BzATP (P2X7 [2]; BzATP >20 μM, cells transfected with either empty vector or the ZFP-KOX construct): some death of cells | survival of cells transfected with empty vector (P2X7 [2]; BzATP concentrations >100 μM): almost no survival | YO-PRO-1 uptake by control uninfected cells in the presence of BzATP (P2X7 [3]): substantial amounts of YO-PRO-1
